Laboratory results taken from ChEMBL document CHEMBL1201862, “PubChem BioAssay data set” (2004).
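Tested at 5 concentrations; 48 h exposure; 96-well plates; endpoints linearly interpolated, else capped at highest concentration. The concentration for 50% growth inhibition is given as GI50.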 Activity calls are given as the source filed them. Cut-off read from the data, not from the text of the source: active = GI50 up to about 1.1 µM and inactive = higher.

Key:
Test in all cases: NCI tumour cell line growth inhibition, 48 h
786-0 = system: 786-0
A498 = system: A498
A549 = system: A549
ACHN = system: ACHN
BT-549 = system: BT-549
CAKI-1 = system: CAKI-1
CCRF-CEM = system: CCRF-CEM
COLO 205 = system: COLO 205
DU-145 = system: DU-145
EKVX = system: EKVX
HCC 2998 = system: HCC 2998
HCT-116 = system: HCT-116
HCT-15 = system: HCT-15
HL-60 = system: HL-60
HOP-62 = system: HOP-62
HOP-92 = system: HOP-92
HT-29 = system: HT-29
Hs-578T = system: Hs-578T
IGROV-1 = system: IGROV-1
K562 = system: K562
KM12 = system: KM12
LOX IMVI = system: LOX IMVI
M14 = system: M14
MCF7 = system: MCF7
MDA-MB-231 = system: MDA-MB-231
MDA-MB-435 = system: MDA-MB-435
MDA-N = system: MDA-N
MOLT-4 = system: MOLT-4
Malme-3M = system: Malme-3M
NCI-H226 = system: NCI-H226
NCI-H23 = system: NCI-H23
NCI-H460 = system: NCI-H460
NCI-H522 = system: NCI-H522
NCI/ADR-RES = system: NCI/ADR-RES
OVCAR-3 = system: OVCAR-3
OVCAR-4 = system: OVCAR-4
OVCAR-5 = system: OVCAR-5
OVCAR-8 = system: OVCAR-8
PC-3 = system: PC-3
RPMI-8226 = system: RPMI-8226
RXF 393 = system: RXF 393
SF-268 = system: SF-268
SF-295 = system: SF-295
SF-539 = system: SF-539
SK-MEL-28 = system: SK-MEL-28
SK-MEL-2 = system: SK-MEL-2
SK-MEL-5 = system: SK-MEL-5
SK-OV-3 = system: SK-OV-3
SN12C = system: SN12C
SNB-19 = system: SNB-19
SNB-75 = system: SNB-75
SR = system: SR
SW-620 = system: SW-620
T47D = system: T47D
TK-10 = system: TK-10
U-251 = system: U-251
UACC-257 = system: UACC-257
UACC-62 = system: UACC-62
UO-31 = system: UO-31

For `N#Cc1c(-c2ccc(Cl)cc2)c2c([nH]c1=O)-c1cc([N+](=O)[O-])ccc1CCC2`, the GI50 (786-0) was 25.1 µM (inactive), the GI50 (A498) was 16.1 µM (inactive) and the GI50 (A549) was 18.8 µM (inactive). The GI50 (ACHN) was 25.3 µM (inactive), the GI50 (BT-549) was 15.2 µM (inactive) and the GI50 (CAKI-1) was 19.9 µM (inactive). For the same compound, the GI50 (CCRF-CEM) was 25.2 µM (inactive), the GI50 (COLO 205) was 19.1 µM (inactive) and the GI50 (DU-145) was 35.8 µM (inactive). For the same compound, the GI50 (EKVX) was 17.1 µM (inactive), the GI50 (HCC 2998) was 16.9 µM (inactive) and the GI50 (HCT-116) was 14.3 µM (inactive). The GI50 (HCT-15) was 14.3 µM, the GI50 (HL-60) was 20 µM (inactive) and the GI50 (HOP-62) was 20.3 µM (inactive). For the same compound, the GI50 (HOP-92) was 14.4 µM (inactive), the GI50 (HT-29) was 25.4 µM (inactive) and the GI50 (Hs-578T) was 25.2 µM (inactive). The GI50 (IGROV-1) was 21 µM (inactive), the GI50 (K562) was 35.4 µM (inactive) and the GI50 (KM12) was 16.4 µM (inactive). For the same compound, the GI50 (LOX IMVI) was 17.5 µM (inactive), the GI50 (M14) was 24.1 µM (inactive) and the GI50 (MCF7) was 24.9 µM (inactive). For the same compound, the GI50 (MDA-MB-231) was 22.4 µM (inactive), the GI50 (MDA-MB-435) was 29.9 µM (inactive) and the GI50 (MDA-N) was 26.7 µM (inactive). For the same compound, the GI50 (MOLT-4) was 38 µM (inactive), the GI50 (Malme-3M) was 25.7 µM (inactive) and the GI50 (NCI-H226) was 17.1 µM (inactive). For the same compound, the GI50 (NCI-H23) was 15.2 µM (inactive), the GI50 (NCI-H460) was 14.1 µM (inactive) and the GI50 (NCI-H522) was 13.3 µM (inactive). For the same compound, the GI50 (NCI/ADR-RES) was 20.8 µM (inactive), the GI50 (OVCAR-3) was 12.8 µM (inactive) and the GI50 (OVCAR-4) was 19.6 µM (inactive). The GI50 (OVCAR-5) was 17.2 µM (inactive), the GI50 (OVCAR-8) was 20.5 µM (inactive) and the GI50 (PC-3) was 29.4 µM (inactive). For the same compound, the GI50 (RPMI-8226) was 86.7 µM (inactive), the GI50 (RXF 393) was 16.1 µM (inactive) and the GI50 (SF-268) was 17.3 µM (inactive). The GI50 (SF-295) was 11.3 µM (inactive), the GI50 (SF-539) was 17.9 µM (inactive) and the GI50 (SK-MEL-28) was 21.2 µM (inactive). The GI50 (SK-MEL-2) was 18 µM (inactive), the GI50 (SK-MEL-5) was 16.6 µM (inactive) and the GI50 (SK-OV-3) was 28.7 µM (inactive). The GI50 (SN12C) was 17.2 µM (inactive), the GI50 (SNB-19) was 20.5 µM (inactive) and the GI50 (SNB-75) was 23.3 µM (inactive). The GI50 (SR) was 28.4 µM (inactive), the GI50 (SW-620) was 33.2 µM (inactive) and the GI50 (T47D) was 30.9 µM (inactive). For the same compound, the GI50 (TK-10) was 34.8 µM (inactive), the GI50 (U-251) was 17.5 µM (inactive) and the GI50 (UACC-257) was 21.1 µM (inactive). The GI50 (UACC-62) was 13.5 µM (inactive) and the GI50 (UO-31) was 16 µM (inactive).
For `COc1ccc(COCC[C@H](C)OC2OC(CO[Si](C)(C)C(C)(C)C)C(O)C(O)C2O)cc1` (some centres not stated), the GI50 (786-0) was > 100 µM (inactive), the GI50 (A498) was > 100 µM (inactive) and the GI50 (A549) was > 100 µM (inactive). For the same compound, the GI50 (ACHN) was > 100 µM (inactive), the GI50 (BT-549) was > 100 µM (inactive) and the GI50 (CAKI-1) was > 100 µM (inactive). For the same compound, the GI50 (CCRF-CEM) was > 100 µM (inactive), the GI50 (COLO 205) was > 100 µM (inactive) and the GI50 (DU-145) was > 100 µM (inactive). The GI50 (EKVX) was > 100 µM (inactive), the GI50 (HCC 2998) was > 100 µM (inactive) and the GI50 (HCT-116) was > 100 µM (inactive). For the same compound, the GI50 (HCT-15) was > 100 µM, the GI50 (HL-60) was > 100 µM (inactive) and the GI50 (HOP-62) was > 100 µM (inactive). For the same compound, the GI50 (HOP-92) was > 100 µM (inactive), the GI50 (HT-29) was > 100 µM (inactive) and the GI50 (Hs-578T) was > 100 µM (inactive). The GI50 (IGROV-1) was > 100 µM (inactive), the GI50 (K562) was > 100 µM (inactive) and the GI50 (KM12) was > 100 µM (inactive). For the same compound, the GI50 (LOX IMVI) was > 100 µM (inactive), the GI50 (M14) was > 100 µM (inactive) and the GI50 (MCF7) was > 100 µM (inactive). The GI50 (MDA-MB-231) was > 100 µM (inactive), the GI50 (MDA-MB-435) was > 100 µM (inactive) and the GI50 (MDA-N) was > 100 µM (inactive). The GI50 (MOLT-4) was 56.9 µM (inactive), the GI50 (Malme-3M) was > 100 µM (inactive) and the GI50 (NCI-H226) was > 100 µM (inactive). The GI50 (NCI-H23) was > 100 µM (inactive), the GI50 (NCI-H460) was > 100 µM (inactive) and the GI50 (NCI-H522) was > 100 µM (inactive). The GI50 (NCI/ADR-RES) was > 100 µM (inactive), the GI50 (OVCAR-3) was > 100 µM (inactive) and the GI50 (OVCAR-4) was > 100 µM (inactive). The GI50 (OVCAR-5) was > 100 µM (inactive), the GI50 (OVCAR-8) was > 100 µM (inactive) and the GI50 (PC-3) was 72.9 µM (inactive). The GI50 (RPMI-8226) was > 100 µM (inactive), the GI50 (RXF 393) was > 100 µM (inactive) and the GI50 (SF-268) was > 100 µM (inactive). The GI50 (SF-295) was > 100 µM (inactive), the GI50 (SF-539) was > 100 µM (inactive) and the GI50 (SK-MEL-28) was > 100 µM (inactive). The GI50 (SK-MEL-2) was > 100 µM (inactive), the GI50 (SK-MEL-5) was > 100 µM (inactive) and the GI50 (SK-OV-3) was > 100 µM (inactive). The GI50 (SN12C) was > 100 µM (inactive), the GI50 (SNB-19) was > 100 µM (inactive) and the GI50 (SNB-75) was 44.2 µM (inactive). The GI50 (SR) was > 100 µM (inactive), the GI50 (SW-620) was > 100 µM (inactive) and the GI50 (T47D) was > 100 µM (inactive). The GI50 (TK-10) was > 100 µM (inactive), the GI50 (U-251) was > 100 µM (inactive) and the GI50 (UACC-257) was > 100 µM (inactive). The GI50 (UACC-62) was > 100 µM (inactive) and the GI50 (UO-31) was 81.8 µM (inactive).
`CC#CCOC(=O)c1ccccc1OC(C)=O` was tested, and the GI50 (786-0) was > 100 µM (inactive), the GI50 (A498) was > 100 µM (inactive) and the GI50 (ACHN) was > 100 µM (inactive). For the same compound, the GI50 (BT-549) was > 100 µM (inactive), the GI50 (CAKI-1) was > 100 µM (inactive) and the GI50 (CCRF-CEM) was > 100 µM (inactive). For the same compound, the GI50 (COLO 205) was > 100 µM (inactive), the GI50 (DU-145) was > 100 µM (inactive) and the GI50 (EKVX) was > 100 µM (inactive). The GI50 (HCC 2998) was > 100 µM (inactive), the GI50 (HCT-116) was > 100 µM (inactive) and the GI50 (HCT-15) was > 100 µM. For the same compound, the GI50 (HL-60) was 72.1 µM (inactive), the GI50 (HOP-62) was > 100 µM (inactive) and the GI50 (HOP-92) was > 100 µM (inactive). The GI50 (Hs-578T) was > 100 µM (inactive), the GI50 (IGROV-1) was > 100 µM (inactive) and the GI50 (K562) was > 100 µM (inactive). For the same compound, the GI50 (KM12) was > 100 µM (inactive), the GI50 (LOX IMVI) was > 100 µM (inactive) and the GI50 (M14) was > 100 µM (inactive). For the same compound, the GI50 (MCF7) was > 100 µM (inactive), the GI50 (MDA-MB-231) was > 100 µM (inactive) and the GI50 (MDA-MB-435) was > 100 µM (inactive). The GI50 (MDA-N) was > 100 µM (inactive), the GI50 (MOLT-4) was > 100 µM (inactive) and the GI50 (NCI-H226) was > 100 µM (inactive). The GI50 (NCI-H23) was > 100 µM (inactive), the GI50 (NCI-H460) was > 100 µM (inactive) and the GI50 (NCI-H522) was > 100 µM (inactive). The GI50 (NCI/ADR-RES) was > 100 µM (inactive), the GI50 (OVCAR-4) was > 100 µM (inactive) and the GI50 (OVCAR-5) was > 100 µM (inactive). For the same compound, the GI50 (OVCAR-8) was > 100 µM (inactive), the GI50 (PC-3) was > 100 µM (inactive) and the GI50 (RPMI-8226) was > 100 µM (inactive). The GI50 (RXF 393) was > 100 µM (inactive), the GI50 (SF-268) was > 100 µM (inactive) and the GI50 (SF-295) was > 100 µM (inactive). The GI50 (SF-539) was > 100 µM (inactive), the GI50 (SK-MEL-2) was > 100 µM (inactive) and the GI50 (SK-MEL-5) was > 100 µM (inactive). For the same compound, the GI50 (SK-OV-3) was > 100 µM (inactive), the GI50 (SN12C) was > 100 µM (inactive) and the GI50 (SNB-19) was > 100 µM (inactive). The GI50 (SNB-75) was > 100 µM (inactive), the GI50 (SR) was > 100 µM (inactive) and the GI50 (SW-620) was > 100 µM (inactive). For the same compound, the GI50 (T47D) was > 100 µM (inactive), the GI50 (TK-10) was > 100 µM (inactive) and the GI50 (U-251) was > 100 µM (inactive). For the same compound, the GI50 (UACC-257) was > 100 µM (inactive), the GI50 (UACC-62) was > 100 µM (inactive) and the GI50 (UO-31) was > 100 µM (inactive).
